Data from ChEMBL document CHEMBL1201862, “PubChem BioAssay data set” (2004).
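Each compound was tested at five concentrations against cells in 96-well plates for 48 hours. GI50 = concentration required for 50% inhibition of growth.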 Calls of active or inactive are those of the source. No stated cut-off is given here; in the data, active = GI50 up to about 1.1 µM and inactive = higher.

Legend:
Assay in all cases: inhibition of tumour cell growth, NCI panel, 48 h
[1] = system: SF-539
[2] = system: DU-145
[3] = system: A549
[4] = system: HOP-92
[5] = system: U-251
[6] = system: SW-620
[7] = system: KM12
[8] = system: NCI-H226
[9] = system: NCI-H522
[10] = system: CCRF-CEM
[11] = system: SNB-75
[12] = system: SK-MEL-28
[13] = system: PC-3
[14] = system: SK-OV-3
[15] = system: UACC-257
[16] = system: RXF 393
[17] = system: Malme-3M
[18] = system: OVCAR-5
[19] = system: M14
[20] = system: MDA-N

Compound	GI50 [1]	GI50 [2]	GI50 [3]	GI50 [4]	GI50 [5]	GI50 [6]	GI50 [7]	GI50 [8]	GI50 [9]	GI50 [10]	GI50 [11]	GI50 [12]	GI50 [13]	GI50 [14]	GI50 [15]	GI50 [16]	GI50 [17]	GI50 [18]	GI50 [19]	GI50 [20]
CCOC(=O)c1sc(N)nc1N1CCCC1	> 100 µM (inactive)	> 100 µM (inactive)	> 100 µM (inactive)	> 100 µM (inactive)	> 100 µM (inactive)	> 100 µM (inactive)	> 100 µM (inactive)	> 100 µM (inactive)	> 100 µM (inactive)	> 100 µM (inactive)	> 100 µM (inactive)	> 100 µM (inactive)	> 100 µM (inactive)	> 100 µM (inactive)	> 100 µM (inactive)	0.942 µM (active)	> 100 µM (inactive)	> 100 µM (inactive)	> 100 µM (inactive)	> 100 µM (inactive)
O=c1oc2ccccc2cc1-c1csc(Nc2cc(Cl)cc(Cl)c2)n1	2.28 µM (inactive)	31.2 µM (inactive)	4.51 µM (inactive)	> 39 µM (inactive)	2.39 µM (inactive)	11.9 µM (inactive)	> 27.5 µM (inactive)	> 35.8 µM (inactive)	20.9 µM (inactive)	25.2 µM (inactive)	2.71 µM (inactive)	9.51 µM (inactive)	> 100 µM (inactive)	> 34.6 µM (inactive)	> 100 µM (inactive)	5.14 µM (inactive)	11.7 µM (inactive)	> 100 µM (inactive)	> 35.5 µM (inactive)	29.2 µM (inactive)
COC(=O)CSc1cc(Cl)c(C)cc1S(=O)(=O)Nc1n[nH]c(N)n1	> 10 µM (inactive)	> 10 µM (inactive)	> 10 µM (inactive)	> 10 µM (inactive)	> 10 µM (inactive)	> 10 µM (inactive)	> 10 µM (inactive)	> 10 µM (inactive)	> 10 µM (inactive)	> 10 µM (inactive)	> 10 µM (inactive)	> 10 µM (inactive)	> 10 µM (inactive)	> 10 µM (inactive)	> 10 µM (inactive)	> 10 µM (inactive)	> 10 µM (inactive)	> 10 µM (inactive)	> 10 µM (inactive)	> 10 µM (inactive)
COc1ccc(/C=N/c2c(O)ccc3ccccc23)cc1OC	> 100 µM (inactive)	> 100 µM (inactive)	54.6 µM (inactive)	1.95 µM (inactive)	> 100 µM (inactive)	> 100 µM (inactive)	> 100 µM (inactive)	> 100 µM (inactive)	15.6 µM (inactive)	> 100 µM (inactive)	47.2 µM (inactive)	> 100 µM (inactive)	> 100 µM (inactive)	> 100 µM (inactive)	80.5 µM (inactive)	69.3 µM (inactive)	14.5 µM (inactive)	> 100 µM (inactive)	74.5 µM (inactive)	17.1 µM (inactive)
Cc1cc(-c2nc3cccc(F)c3s2)ccc1N	> 100 µM (inactive)	> 73.5 µM (inactive)	> 52 µM (inactive)	> 50.8 µM (inactive)	> 68.2 µM (inactive)	> 87.9 µM (inactive)	> 57.1 µM (inactive)	22.1 µM (inactive)	> 100 µM (inactive)	8.04 µM (inactive)	> 51.4 µM (inactive)	> 100 µM (inactive)	> 65.8 µM (inactive)	> 100 µM (inactive)	> 68.1 µM (inactive)	> 71 µM (inactive)	> 100 µM (inactive)	–	> 68.2 µM (inactive)	> 60.3 µM (inactive)
COc1ccc(/C=C(/C)[N+](=O)[O-])cc1	1.72 µM (inactive)	2.36 µM (inactive)	4.21 µM (inactive)	2 µM (inactive)	1.62 µM (inactive)	2.01 µM (inactive)	1.67 µM (inactive)	21.1 µM (inactive)	0.292 µM (active)	0.565 µM (active)	1.26 µM (inactive)	2.65 µM (inactive)	2.16 µM (inactive)	5.98 µM (inactive)	1.5 µM (inactive)	1.69 µM (inactive)	2.11 µM (inactive)	3.19 µM (inactive)	3.18 µM (inactive)	2.05 µM (inactive)
Nc1ccc(-c2nc3ccc(Cc4ccc5nc(-c6ccc(N)cc6)oc5c4)cc3o2)cc1	> 100 µM (inactive)	> 100 µM (inactive)	> 100 µM (inactive)	47.4 µM (inactive)	> 100 µM (inactive)	> 100 µM (inactive)	> 100 µM (inactive)	> 100 µM (inactive)	> 100 µM (inactive)	> 100 µM (inactive)	–	> 100 µM (inactive)	> 100 µM (inactive)	> 100 µM (inactive)	> 100 µM (inactive)	> 100 µM (inactive)	40 µM (inactive)	> 100 µM (inactive)	49.9 µM (inactive)	> 100 µM (inactive)
